Measurements: patent US8361984B2, “Small interfering RNAs and methods for prevention, inhibition and/or treatment of malignant progression of breast cancer” (Taipei Medical University, priority 2011, dated 2013)
Read-outs that look alike come from different tables or passages of the source.

Tests used:
[1] = target: T1, endogenous α9-nAChR receptor in human breast cancer MDA-MB-231 cells (Homo sapiens, UniProt Q9UGM1); assay: [^3H]-nicotine equilibrium binding in MDA-MB-231 cells
T1 construct: endogenous α9-nAChR receptor in human breast cancer MDA-MB-231 cells; endogenous in cells; host or cells: MDA-MB-231 (parental, Sc and Si α9 clones)
Protocol: L-(−)-[N-methyl-^3H]-nicotine (71-75 Ci/mmol) was purchased from Dupont/NEN Research Products (Boston, Mass.), and free base nicotine (99% pure) was purchased from the Eastman Kodak Co. (Rochester, N.Y.). To study the uptake of [^3H]-nicotine in MDA-MB-231 cell monolayers (2×10^6 cells per well), cells were rinsed three times with a buffer containing 140 mM NaCl, 5.4 mM KCl, 1.8 mM CaCl2, 0.8 mM MgSO4, 5 mM glucose, and 25 mM Hepes (pH 7.4). Saturation binding studies were conducted for 2 hours at 37° C. in six-well plates, and used at least eight different concentrations of [^3H]-nicotine ranging from 1 to 15 nM. Time-dependent association kinetic studies in MDA-MB-231, Si α9, Sc cells were conducted using a single concentration of [^3H]-nicotine (7 nM) for treatments of 5, 10, 15, 30, 60 and 90 minutes. For determination of nonspecific binding, 10 μM unlabeled nicotine was pre-added to medium, after which cells were washed three times with ice-cold buffer and then exposed to [^3H]-nicotine. [^3H]-nicotine uptake was stopped by aspiration of the uptake medium and washing the wells three times with ice-cold buffer. The cells were lysed in 1 mL of 0.5% Triton X-100, and aliquots of the cell lysates were transferred to scintillation vials to determine the incorporated radioactivity by scintillation counting. The assay was repeated four times with duplicate samples.

[2] = test system: MCF-10A-Nic (DOX) xenografts; conditions: after 7 weeks; for tumor volume: with nicotine 10 mg/mL drinking water
Protocol: BALB/c-nu/nu mice (female, 4 weeks old, n=5 per group) purchased from National Science Council Animal Center, Taipei, were injected subcutaneously with MCF-10A-Nic (DOX) and vector control (5×10^6) cells. After transplantation, mice bearing tumors were treated with DOX (0.5 mg/mL) via drinking water for 14 days. After that, all mice bearing tumors (200 mm^3) were divided into either α9-nAChR mRNA expressing (DOX−) or non-induced (DOX+) groups, the latter of which could express the α9-nAChR mRNA at basal level. The mice were simultaneously treated with or without nicotine (10 mg/mL) in their drinking water for an additional 6 weeks. The xenografts were weighed and either snap-frozen in dry ice and stored at −80° C. for RNA and protein analysis or formalin-fixed and paraffin-embedded for immunohistochemical observation.
Examination was conducted as to whether induction of α9-nAChR in the presence or absence of nicotine stimulation in vivo would effectively promote tumor growth (FIG. 6). BALB/c-nu/nu mice (female, 4 weeks old) were injected subcutaneously with transformed MCF-10A-Nic (DOX) cells (5×10^6). After that, all mice bearing tumors (200 mm^3) were divided into either α9-nAChR mRNA expressing (DOX−) or non-expressing (DOX+) groups in the presence or absence of nicotine (10 mg/mL) in their drinking water (n=5, per group).

[3] = test system: MCF-10A (DOX) cells; assay: MTT cell proliferation assay in MCF-10A (DOX) cells; format: cell-based, human; conditions: nicotine 10 μM, NNK 1 μM; DOX+ vs DOX− cells
Protocol: Data points represent the mean; error bars indicate 95% confidence intervals. […] The experiment was repeated four times with duplicate samples. […] After transplantation, mice bearing tumors were treated with DOX (0.5 mg/mL) via drinking water for 14 days. After that, all mice bearing tumors (200 mm^3) were divided into either α9-nAChR mRNA expressing (DOX−) or non-expressing (DOX+) groups in the presence or absence of nicotine (10 mg/mL) in their drinking water (n=5, per group). […] Error bars represent 95% confidence intervals.
(§1) Cell growth, proliferation, and viability were determined using the 3-(4,5-dimethylthiazol-2-yl)-2,5-diphenyltetrazolium (MTT) assay (Chou Y H, Ho Y S, Wu C C, et al. Food Chem Toxicol 2007; 45(8):1356-67.) Stock solutions of 10 mM nicotine and NNK (Chemsyn, Lenexa, Kans.) were prepared in dimethyl sulfoxide (DMSO). This assay was repeated four times with duplicate samples.

[4] = test system: MCF-10A (DOX) cells; assay: Long-term transformation of MCF-10A (DOX) cells, soft agar colony formation; format: cell-based, human; conditions: soft agar 21 days
Text: Anchorage-independent growth of α9-nAChR overexpressing (MCF-10A-Nic (DOX) and MCF-10A-NNK (DOX)) and siRNA-expressing MDA MB-231 Si α5, Si α9, and Sc cells were examined in soft agar assays. The base layer consisted of 0.9% low-melting point SeaPlaque agarose (Sigma, St. Louis, Mo.) in complete MCF-10A culture medium. Soft agar was composed of 0.4% SeaPlaque agarose in complete DMEM and F12 culture medium was mixed with 1×10^4 cells and plated on top of the base layer in 60-mm-diameter culture dishes. […] Soft agar cultures were maintained at 37° C. for an additional 21 days and observed for the appearance of colonies with a Leica DMI 4000B Microscope Imaging System (Leica Microsystems, Wetzlar, Germany). The assay was repeated four times with duplicate samples.

[5] = test system: MDA-MB-231 cells; assay: Soft agar growth assay of MDA-MB-231 cells; format: cell-based, human; conditions: parental MDA-MB-231 cells; nicotine 10 μM or NNK 1 μM
Text: (§2) The experiment was repeated four times with duplicate samples.
The assay was repeated four times with duplicate samples.

[6] = test system: MDA-MB-231 cells; assay: MTT cell proliferation assay in MDA-MB-231 cells (parental, Sc, Si α5, Si α9); format: cell-based, human
Text: A) Detection of nAChR subunits by reverse transcription-polymerase chain reaction (RT-PCR) in normal and cancerous human breast cell lines. MCF-7, MDA-MB-231, AU-565, MDA-MB-453, and BT-483 are transformed human breast cancer cells; MCF-10A and HBL-100 are considered normal human breast cells. The expression profiles of nAChR subunits in human SAEC (small airway epithelial), NHBE (normal human bronchial epithelial), and H157 (lung cancer) cells were also examined as described previously (West K A, Brognard J, Clark A S, et al. J Clin Invest 2003; 111(1):81-90). B) Relative mRNA expression of different nAChR subunits in normal and tumor human breast tissues isolated from 50 breast cancer patients. The cDNA was used for RT-PCR analysis and the experiment was repeated twice. Percent of occurrence is shown. C) Expression of the α5 and α9 nAChR subunits in stable MDA-MB-231 cell lines that express α9-nAChR (Si α9), α5-nAChR (Si α5), or scrambled (Sc) short interfering RNAs (siRNAs). […] Levels of α5 and α9 mRNAs were determined by RT-PCR, and levels of the α5 and α9 proteins by western blotting (WB). In each case, glyceraldehyde 3-phosphate dehydrogenase (GADPH) expression served as a control. D) Cell proliferation in Si α5, Sc, and parental MDA-MB-231 cells treated with dimethylsulfoxide DMSO vs nicotine, and in cells treated with DMSO vs the nicotine metabolite, 4-(methylnitrosamino)-1-(3-pyridyl)-1-butanone (NNK). Parental MDA-MB-231 cells (231) and 231 cells stably transformed the Si α5-, Sc-, or Si α9-siRNAs were treated with either nicotine (10 μM), NNK (1 μM), or vehicle alone in the absence of continued G418 selection afterwards. […] Cell proliferation was measured by the 3-(4,5-dimethylthiazol-2-yl)-2,5-diphenyltetrazolium (MTT) assay, in which a greater number of cells was reflected by an increased OD540 nm at the indicated time points. The experiment was repeated four times with duplicate samples. Data points represent the mean; error bars indicate 95% confidence intervals. The data were analyzed by nonparametric two-sided tests (Kruskal-Wallis and Mann-Whitney tests). […] E) Confocal microscopy of α9-nAChR expression in human breast cancer (MCF-7) cells. Immunofluorescence with a fluorescein isothiocyate-conjugated secondary antibody was used to detect the α9-nAChR, whereas a rhodamine-conjugated fluorescent antibody was used for caveolin-1 labeling. Localization of α9-nAChR (left, green), the membrane protein caveolin-1 (middle, red), and the merged image (right, yellow) are shown. Scale bar=25 μm. F) Dose-dependent binding of [^3H]-nicotine to the endogenous α9-nAChR receptor in human breast cancer MDA-MB-231 cells (left panel) and time-dependent [^3H]-nicotine binding in parental MDA-MB-231 cells (231), or in 231 cells stably transformed with α9-nAChR siRNA (Si α9) or scrambled control (Sc) siRNA (right panel). The experiment was repeated four times with duplicate samples. Data points represent the mean; error bars indicate the 95% confidence intervals. […] G) Analysis of α9-nicotinic acetylcholine receptor (α9-nAChR) expression in human breast carcinoma tissues. Determination of α9-nAChR mRNA levels using reverse transcription-polymerase chain reaction (RT-PCR). […] PCR was performed for 30 cycles.
as §1

[7] = test system: MDA-MB-231 tumor xenografts; assay: MDA-MB-231 α9-nAChR siRNA-expressing xenografts in NOD-SCID mice; format: in vivo, mouse
Text: as §2

[8] = nicotine-treated (10 mg/mL drinking water) mice with parental MDA-MB-231 tumors
[9] = Sc cells, day 11, nicotine 10 μM, NNK 1 μM
[10] = Si α5 cells, day 11, nicotine 10 μM, NNK 1 μM

T1 sequence (Q9UGM1 26-479 limits assumed): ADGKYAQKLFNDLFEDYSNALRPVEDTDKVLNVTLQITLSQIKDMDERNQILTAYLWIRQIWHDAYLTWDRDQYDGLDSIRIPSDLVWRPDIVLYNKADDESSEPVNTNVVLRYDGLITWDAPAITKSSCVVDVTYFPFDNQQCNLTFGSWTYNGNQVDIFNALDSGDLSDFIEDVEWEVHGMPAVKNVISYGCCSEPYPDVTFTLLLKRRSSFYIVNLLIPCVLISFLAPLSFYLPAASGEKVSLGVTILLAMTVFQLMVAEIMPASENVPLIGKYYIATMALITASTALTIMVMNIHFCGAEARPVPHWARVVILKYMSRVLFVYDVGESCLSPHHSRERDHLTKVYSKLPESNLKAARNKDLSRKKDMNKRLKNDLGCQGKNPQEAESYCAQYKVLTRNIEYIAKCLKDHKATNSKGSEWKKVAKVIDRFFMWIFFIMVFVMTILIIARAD

SMILES	time at which maximum binding activity is attained ([1]; MDA-MB-231 cells, [^3H]-nicotine 7 nM) [min]	Kd ([1]; MDA-MB-231 cells, saturation binding 2 hours at 37° C., read-out: dissociation constant (Kd) of [^3H]-nicotine binding) [nM]	[^3H]-nicotine bound by parental cells ([1]; parental MDA-MB-231 cells) [DPM]	difference in tumor volume, with vs without nicotine ([2]; +DOX) [mm^3]	tumor volume ([2]; +DOX) [mm^3]	difference in tumor volume, with vs without nicotine ([2]; −DOX) [mm^3]	tumor volume ([2]; −DOX) [mm^3]	induction of cell proliferation [3]	colonies formed in soft agar ([4]; MCF-10A (DOX−) cells, nicotine 10 μM for 60 days)	no. of colonies in parental cells [5] [colonies]	difference in mean OD540 nm vs control (DMSO) [6]	mean OD540 nm [6]	tumor weight in nicotine-fed mice ([7]; mice injected with MDA-MB-231 (231) or Sc cells (FIG. 3D))	tumor volume at 6 weeks treatment [7, 8] [mm^3]	tumor weight at 6 weeks [7, 8] [g]	colonies formed, DOX− compared with DOX+ cells ([4]; NNK 1 μM for 60 days)	difference in mean OD540 nm vs control (DMSO) [6, 9]	mean OD540 nm [6, 9]	difference in mean OD540 nm vs control (DMSO) [6, 10]	mean OD540 nm [6, 10]
CN1CCCC1c1cccnc1 [[^3H]-nicotine, L-(−)-[N-methyl-^3H]-nicotine]	60	3	489.7																	
CN1CCCC1c1cccnc1 (stereo not shown) [nicotine]				235.4	501.6	277.4	898.6	induced cell proliferation was observed only in the MCF-10A (DOX+) cell line	six	341	0.58	1.35	heavier	2993.2	4.38					
CN(CCCC(=O)c1cccnc1)N=O [NNK, 4-(methylnitrosamino)-1-(3-pyridyl)-1-butanone]								induced cell proliferation was observed only in the MCF-10A (DOX+) cell line		406						More colonies	1.00	1.77	0.99	1.78
